Measured values: patent publication US4812393A, “Fluorescent dyes and biological and analytical uses thereof” (priority 1986, dated 1989)

How the values were obtained:
[1] = Fluorescence emission maximum and fluorescence quantum efficiency of the dyes; format: physicochemical
Experimental: Representative novel dyes of this invention are listed in Table I below in reference to the illustrated structure above. Of these, Compound 4 is preferred for use in biological studies and assays because it can be used at a pH of 7 or less. In Table I, the "fluorescence quantum efficiency" was determined by procedures described by Birks in Standardization in Spectrophotometry and Luminescence Measurements, Mielenz et al (Eds.), Nat. Bureau of Standards Special Publication 466 (1977).

[2] = tested on: carboxyl esterase, Type I; experiment: Determination of an esterase enzyme by hydrolysis of the hydrolyzable substrate (fluorometer); format: biochemical; settings: final enzyme activity 48 I.U., HEPES pH 7.8, excitation 540 nm, emission 610 nm
Experimental: The hydrolyzable compound used is represented by the structure: [drawing 11]
A test solution was prepared from the following: the hydrolyzable substrate (50 μl of a solution of 0.1 mg/0.5 ml of methanol), 0.05 molar HEPES buffer (3 μl, pH 7.8) and the esterase enzyme carboxyl esterase, Type I (50 μl). A Control solution was similarly prepared by omitting the enzyme. Fluorescence of the released fluorescent dye was measured with a commercially available fluorometer when the enzyme was first added to the test solution and at various times thereafter (excitation at 540 nm and emission at 610 nm). The Control solution was similarly evaluated at the indicated times.

## CCCCOC(=O)c1cc(O)c(Cl)c2c1cc1c3c(cccc32)C(=O)C=C1 [Compound 9]
[1]; in 5:1 water/methanol
  Emission (λmax): 625 nm
[1]; solvent in 5:1 water/methanol
  Fluorescence Quantum Efficiency: 0.56

## CCCCOC(=O)c1cc(O)cc2c1cc1c3c(cccc32)C(=O)C=C1 [Compound 7]
[1]; in methanol
  Emission (λmax): 525 nm
  Fluorescence Quantum Efficiency: 0.4

## Cc1cc(O)c(Cl)c2c1cc1c3c(cccc32)C(=O)C=C1 [Compound 3]
[1]; in methanol
  Emission (λmax): 629 nm
  Fluorescence Quantum Efficiency: 0.55

## Cc1cc(N2CCCC2)cc2c1cc1c3c(cccc32)C(=O)C=C1 [Compound 6]
[1]; in methanol
  Emission (λmax): 655 nm
  Fluorescence Quantum Efficiency: 0.52

## CCCCOC(=O)c1cc(O)cc2c1cc1c3c(cccc32)C(=O)C=C1 [Compound 8]
[1]; in 5:1 water/methanol
  Emission (λmax): 630 nm
[1]; solvent in 5:1 water/methanol
  Fluorescence Quantum Efficiency: 0.3

## Cc1cc(O)c(Cl)c2c1cc1c3c(cccc32)C(=O)C=C1 [Compound 4]
[1]; in 5:1 water/methanol
  Emission (λmax): 628 nm
[1]; solvent in 5:1 water/methanol
  Fluorescence Quantum Efficiency: 0.42

## Cc1cc(O)cc2c1cc1c3c(cccc32)C(=O)C=C1 [Compound 2]
[1]; in 5:1 water/methanol
  Emission (λmax): 635 nm
[1]; solvent in 5:1 water/methanol
  Fluorescence Quantum Efficiency: 0.18

## Cc1cc(OC(=O)N(C)c2ccccc2)c(Cl)c2c1cc1c3c(cccc32)C(=O)C=C1 [Compound 5]
[1]; in 5:1 water/methanol
  Emission (λmax): 550 nm
[1]; solvent in 5:1 water/methanol
  Fluorescence Quantum Efficiency: 0.01

## CC(=O)Oc1cc(C)c2cc3c4c(cccc4c2c1Cl)C(=O)C=C3 [Example 6]
[2]; 0 minutes
  Δ Relative Fluorescence (Minutes) 0: 8.1
[2]; 1 minute
  Δ Relative Fluorescence (Minutes) 1: 31.5
[2]; 2 minutes
  Δ Relative Fluorescence (Minutes) 2: 32.1
[2]; 5 minutes
  Δ Relative Fluorescence (Minutes) 5: 33.3

## Cc1cc(O)cc2c1cc1c3c(cccc32)C(=O)C=C1 [Compound 1]
[1]; in methanol
  Emission (λmax): 542 nm
  Fluorescence Quantum Efficiency: 0.4
